The record followed here is patent US20190040025A1, “INDOLEAMINE 2,3-DIOXYGENASE INHIBITOR, PREPARATION METHOD THEREFOR, AND APPLICATION” (Jiangsu Hansoh Pharmaceutical Group Co., Ltd., priority 2016, published 2019).

In assay [1] the test system is mouse rectal cancer cell line Colon26. Briefly: Anti-tumor effect in Colon26 tumor-bearing mouse model. Type of assay: in vivo, mouse (Balb/c). The settings on record: Colon26 tumor-bearing mice. An excerpt: The present invention further used the Colon26 tumor-bearing mouse model to test the anti-tumor effect of the example compounds. The Colon26 tumor-bearing mouse model was the mouse rectal cancer cell line Colon26 purchased from Guangzhou Ginio Biological Technology Co., Ltd., and the culture medium used was RPMI1640 containing 10% fetal bovine serum. The mouse strain used for tumor-bearing was Balb/c purchased from Sino-British SIPPR/BK Lab Animal Co., Ltd. At the time of implanting, the Colon26 cells in logarithmic growth phase were collected and mixed to 10 million cells/ml. Each mouse was implanted subcutaneously with 100 μl of one million cells. When the tumor grew to about 100 cubic millimeters, animals were randomly divided into groups with 8 animals per group. Drug administration was started (D0).
Mode of administration: intragastric administration, twice a day.
(§1) Formulation prescription: 3% dimethylacetamide and 20% hydroxypropyl-β-cyclodextrin. • Administration period and tumor measurement: The administration period was 13 days. The tumor volume was measured, the mice were weighed, and the data were recorded, 3 times per week. The calculation formula of tumor volume (V) is: V=½a×b2 where a and b represent length and width, respectively. The calculation formula of T/C is: T/C (%)=100×ΔT/ΔC. Tumor inhibition rate (%)=1−T/C (%). • Experimental results: The antitumor effect of the compound of Example 15 in Colon26 tumor-bearing mouse model is shown in the following table.
Under the same experimental conditions, the dosage was adjusted. The anti-tumor effect of Example 15 and its optical isomers 18-(1) and 18-(2) in Colon26 tumor-bearing mouse model is shown in the following table: […]

In assay [2] the test system is mouse pancreatic cancer cell line PAN02. Briefly: Anti-tumor effect in PAN02 tumor-bearing mouse model. The settings on record: PAN02 tumor-bearing mice, 50 mg/kg intragastric twice a day. Type of assay: in vivo, mouse (C57/BL6).
Description: The invention used the PAN02 tumor-bearing mouse model to test the anti-tumor effect of the example compounds. The PAN02 tumor-bearing mouse model was the mouse pancreatic cancer cell line PAN02 purchased from Guangzhou Ginnio Biological Technology Co., Ltd., and the culture medium used was DMEM containing 10% fetal bovine serum. The mouse strain used for tumor-bearing was C57/BL6 purchased from Shanghai Slac Laboratory Animal Co., Ltd. At the time of implanting, the PAN02 cells in the logarithmic growth phase were collected, and mixed with the BDMatrigel matrix gel that reduced the growth factor to 50 million cells/ml. Each mouse was implanted subcutaneously with 100 μL of 5 million cells. When the tumor grew to about 100 cubic millimeters, animals were randomly divided into groups with 8 animals per group. Drug administration was started (D0).
Mode of administration: intragastrical administration, twice a day.
as §1, with “3% two methyl acetamide” for “3% dimethylacetamide”, “times a” for “times per”, “is: V=½a×b2,” for “is: V=½a×b2”, “and width” for “and width,”, “results: the anti-tumor” for “results: The antitumor”, “in PAN02” for “in Colon26”

In assay [3] the target is T1, Human indoleamine 2,3-dioxygenase (IDO) (Homo sapiens, UniProt P14902).
T1 construct: purchased BPS Bioscience Inc
T1 sequence (P14902 whole entry): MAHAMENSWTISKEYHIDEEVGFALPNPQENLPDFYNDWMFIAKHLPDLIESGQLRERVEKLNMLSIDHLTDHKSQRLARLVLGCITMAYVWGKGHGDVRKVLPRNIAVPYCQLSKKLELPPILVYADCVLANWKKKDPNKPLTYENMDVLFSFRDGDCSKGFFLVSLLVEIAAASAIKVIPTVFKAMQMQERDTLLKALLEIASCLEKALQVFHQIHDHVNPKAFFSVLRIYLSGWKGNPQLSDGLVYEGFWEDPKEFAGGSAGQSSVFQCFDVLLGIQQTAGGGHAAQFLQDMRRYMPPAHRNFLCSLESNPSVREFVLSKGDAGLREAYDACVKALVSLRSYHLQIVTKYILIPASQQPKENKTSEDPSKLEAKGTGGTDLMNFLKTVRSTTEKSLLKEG
Description: Enzymatic test for IDO activity inhibition. Type of assay: biochemical. The settings on record: 40 nM IDO enzyme, 0.2 mM L-tryptophan, 60 minutes at 30° C. As for the experimental part: Human indoleamine 2,3-dioxygenase (IDO) was purchased from BPS Bioscience Inc. The enzymatic reaction of idoleamine 2,3-dioxygenase (IDO) was performed in a 96-well plate with a reaction volume of 20 μL. The reaction conditions were: 40 nM IDO enzyme, 0.2 mM L-tryptophan, 50 mM KPB (pH 6.5) buffer, 20 mM sodium L-L-ascorbate, 10 μM methylene blue, 0.2 mg/mL catalase, different concentrations of compounds containing <1% dimethyl sulfoxide. After reacting for 60 minutes at 30° C., 5 μL of 30% (w/v) trichloroacetic acid (in 50 mM KPB buffer) weres added to each well. The plate was incubated for 30 minutes at 50° C. to hydrolyze N-formyl-kynurenine to kynurenine. 25 μL of 2% (w/v) p-(dimethylamino)benzaldehyde (p-DMBA)/glacial acetic acid solution were added to each well. The absorbance at 490 nm was read on a BioTek Synergy H1 microplate reader […].
The stock solution of the test compound was prepared to 10 mM with dimethyl sulfoxide, diluted with dimethyl sulfoxide to the highest concentration of the test during the experiment, then diluted in 1:3 gradient, and generally diluted to 8 to 10 concentration points. Duplicate wells were set for each concentration point, and one reference compound was included in each experiment. The original data of the absorbance at 490 nm read on a microplate reader were analyzed. The inhibition of IDO enzyme activity was calculated at different concentrations of the test compound. The half-inhibitory concentration IC50 value of the compound was obtained by non-linear fitting analysis of inhibition percentage data by GraphPad Prism software.

The mark [4] stands for this setting: 25 mg/kg intragastric twice a day, D12.

As usually defined, the IC50 is the concentration needed to halve the response being measured. For the molecule `CS(=O)(CCNc1nonc1/C(=N/O)Nc1ccc(F)c(Br)c1)=NS(=O)(=O)C1CC1` (stereo not shown) [Example 15, (Z)—N-(3-bromo-4-fluorophenyl)-4-((2-(N-(cyclopropylsulfonyl)-S-methylsulfonimidoyl)ethyl)amino)-N′-hydroxy-1,2,5-oxadiazole-3-carboximidamide], the “Tumor inhibition rate (%) D12” value in assay [1] (10 mg/kg, D12) stood at 71.10%; in assay [1] (25 mg/kg intragastric twice a day, D12, 25 mg/kg), 94.6%; in assay [2] (D12, 50 mg/kg), 74.8%. Besides, the “Average tumor volume (mm^3 ± SEM) D0” value in assay [1] (25 mg/kg intragastric twice a day, D0 (start of administration)) came to 95.5 ± 2.0 mm^3; in assay [2] (D0 (start of administration)), 105.0 ± 3.4 mm^3. The results for the “Average tumor volume (mm^3 ± SEM) D12” value in assay [1] (setting [4]) and in assay [2] (D12) were 212.7 ± 28.9 mm^3 and 163.3 ± 11.0 mm^3, respectively. The “T/C (%) D12” value in assay [1] (setting [4]) stood at 5.4%; in assay [2] (D12) it was 25.2%. The IC50 in assay [3] is 27 nM.
